Patent publication US4973708A, “3-hydroxy-N-methylpyrrolidone and preparation thereof” (University of Kentucky Research Foundation, priority 1988, dated 1990)

Assays:
[1] = format: in vitro ADME, human
Procedure: Standard Franz diffusion cells (15 mm i.d., o-ring design) were manufactured by Crown Glass Inc., Somerville, N.J. The cell caps were modified with ground glass joints to fit 14/20 ground glass stoppers. A Franz diffusion cell drive console F-DCD-9 was also manufactured by Crown Glass. A Vandercamp 2500 recirculating water bath was used to maintain the cells at 37° C. Split thickness human allograph tissues (0.015 in. thickness), thigh back area, was obtained from the Tissue Transplant Bank, St. Agnes Medical Center, Philadelphia, Pa. Samples were counted in a Packard Auto-Gamma Scintillation Spectrometer.
Sterile Saline (0.9% Sodium Chloride USP, Travenol, NDC 0338-0049-04 lot co56747), Albumin (Bovine, fraction v, Sigma A-4503 lot 127F-0877), N-Methyl-2-pyrrolidone (Aldrich 99+ % Cat No. 24,279-9 lot 04402TP), Neomycin Sulfate (Sigma N-1876 lot 66F-0151), absolute ethanol (Midwest Solvents Company of Illinois).
Human allograph tissue, which had been stored at -70° C., was thawed and immediately mounted in a Franz type diffusion cell. The receptor chamber was filled with normal saline containing 2% albumin and 0.05% neomycin sulfate. Each cell was maintained at 37° C. and stirred at 600 rpm. After the cells had been allowed to equilibrate for 4 to 6 hours, 200 ul of a saturated ethanolic solution of 5-chloro-8-hydroxy-7-[^125I]-iodoquinoline (approx. 70 uCi, 0.44 mg) was applied to the donor side of each cell. This was immediately followed by either 200 μl of absolute ethanol for the control cells, 200 μl of 50% (w/v 3-hydroxy-N-methylpyrrolidone in ethanol or an equimolar ethanolic solution of N-methylpyrrolidone (43.1% w/v). The cells were then capped with ground glass stoppers. At various time intervals, over an 80-100 hour period, the entire contents of the receptor chamber was removed with a 10 cc syringe and placed into a vial. The receptor chamber was then refilled with fresh solution. After the last collection these vials were placed in a well-type gamma counter and counted for I-125 activity.
At the time of dosing 200 μl of the saturated 5-chloro-8-hydroxy-7-[^125 I]-iodoquinoline solution was placed into separate vials to calculate the amount of activity (dose) applied to the skin.
In this example, 3-hydroxy-N-methyl pyrrolidone was tested for its use as a percutaneous penetration enhancer. In vitro studies were carried out using Franz type diffusion cells. The penetration enhancing properties of 3-hydroxy-N-methylpyrrolidone was compared to N-methyl pyrrolidone, a compound known to enhance the penetration of drugs through the skin.
For these in vitro studies radioiodinated 5-chloro-8-hydroxy-7-iodoquinoline was chosen as a model drug. This drug, known as Clioquinol USP, is currently marketed by Ciba (Ciba Pharmaceutical Company, 556 Morris Avenue, Summit, N.J. 07901), as a topical antibacterial/antifungal agent trade named Vioform™. […] This radiolabeled marker is conveniently used to follow the penetration of the drug through the skin.
Franz diffusion cells are designed to mimic in vivo conditions. A finite dose of drug is applied to the stratum corneum side of the skin and penetration is followed by analyzing for the drug in the receptor phase underneath. In these studies the amount of drug crossing the skin barrier is estimated by counting total radioactivity in the receptor phase.
In a preliminary study, the transdermal absorption of Clioquinol was evaluated in the presence of 3-hydroxy-N-methylpyrrolidone, N-methylpyrrolidone, and in the absence of enhancer. An ethanolic solution of [I-131]-Clioquinol was applied to 3 cells followed by either ethanol (control), 50% 3-hydroxy-N-methylpyrrolidone in ethanol or an equimolar solution of N-methylpyrrolidone. In FIG. 1, the percent penetration of 5-chloro-8-hydroxy-7-[^131 I]-iodoquinoline through human skin is illustrated. The amount of 5-chloro-8-hydroxy-7-[^131 I]-iodoquinolineactivity applied is equal to 100%.
The study was repeated using I-125 labeled Clioquinol. […]

[2] = cited from earlier work
[3] = Metabolism of N-methylpyrrolidone, metabolite excreted in urine
From the text: As pointed out above, a penetration enhancer is a chemical compound which, when included in a transdermal formulation, affects the skin of a human by increasing permeability of the skin to allow more of a drug to be absorbed in a shorter period of time. The penetration enhancer is normally contained in a formulation, called a transdermal composition, in combination with the appropriate drug to be delivered and other known components of the formulation. […] As mentioned herein, N-methylpyrrolidone is a known penetration enhancer. In studies leading to this invention using the prior art compound, N-methyl-2-pyrrolidone, it was discovered that a major metabolite of N-methylpyrrolidone which is excreted in the urine is 3-hydroxy-N-methyl-2-pyrrolidone. […] Further, 3-hydroxy-N-methylpyrrolidone is a "softer" xenobiotic to the body because no energy will be expended in metabolic processes after the compound's absorption into the systemic circulation. Also, in view of the apparent safety of N-methylpyrrolidone, its major metabolite, 3-hydroxy-N-methylpyrrolidone, would be expected to have an even lower toxicity.

[4] = animal and human experiments; cited from earlier work

Row | Compound | percent penetration of I-125 labeled Clioquinol through human skin (absorbed), control [1] [%] | percent penetration of [I-131]-Clioquinol through human skin (absorbed), control [1] [%] | time in which the same amount of Clioquinol was absorbed, absence of enhancer [1] [h] | absorption through the skin ([2]; reason for choice as model drug) | percent penetration of I-125 labeled Clioquinol through human skin (absorbed), with enhancer [1] [%] | percent penetration of [I-131]-Clioquinol through human skin (absorbed), with enhancer [1] [%] | relative order of enhancement of Clioquinol penetration [1] | major metabolite excreted in the urine [3] | irritation or sensitization potential [4] | penetration enhancement ([2]; literature) | amount of Clioquinol penetrating the skin, times greater than with N-methylpyrrolidone [1] [times] | amount of Clioquinol penetrating the skin, times higher than the control [1] [times] | amount of I-131 Clioquinol penetrated, times greater than the control [1] [times] | amount of I-131 Clioquinol penetrated, times more than with N-methylpyrrolidone [1] [times] | effectiveness in enhancing the absorption of drugs (conclusion in words) [1] | percent of Clioquinol absorbed in the presence of enhancer [1] [%]
1 | Oc1c(I)cc(Cl)c2cccnc12 [Clioquinol, 5-chloro-8-hydroxy-7-iodoquinoline] | 19.5 | 2.6 | 85 | absorbed very slowly through the skin | – | – | – | – | – | – | – | – | – | – | – | –
2 | CN1CCCC1=O [N-methylpyrrolidone, N-methyl-2-pyrrolidone] | – | – | – | – | 27.8 | 6.5 | N-methylpyrrolone>control | 3-hydroxy-N-methyl-2-pyrrolidone | very little irritation or sensitization potential | effective penetration enhancer | – | – | – | – | – | –
3 | CN1CCC(O)C1=O (stereo not shown) [3-hydroxy-N-methylpyrrolidone, 3-hydroxy-N-methyl-2-pyrrolidone] | – | – | – | – | 40.0 | 10.2 | 3-hydroxy-N-methylpyrrolone >N-methylpyrrolone>control | – | – | – | 1.3 | 1.8 | 3.9 | 1.5 | more effective than N-methylpyrrolidone | 19
